Results published in patent US9315498B2, “Arlethynyl derivatives” (Hoffmann-La Roche Inc., priority 2010, dated 2016).

Biological target: human mGlu5a receptor (Homo sapiens (Human), UniProt P41594)
Experiment: Intracellular Ca2+ mobilization assay (mGlu5 PAM)
Type: cell-based
Settings: for EC50: HEK-293 cells stably transfected with human mGlu5a, L-glutamate added at EC20 after pre-incubation with test compound, read-out: EC50 (nM) mGlu5PAM; for Emax: maximal response in % of the maximal stimulatory effect obtained with saturating concentrations of L-glutamate, read-out: Eff. (%)
Method in brief: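 HEK-293 cells stably expressing human mGlu5a at low level were loaded with Fluo-4AM and preincubated 10–30 min at 37 °C with 11-point half-log compound dilutions. L-glutamate was then added at its daily-determined EC20 (typically around 80 μM). Peak fluorescence minus basal, normalized to maximal glutamate effect, was fitted to give EC50, Hill slope and maximal response.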

Chain of human mGlu5a receptor (P41594 other isoform, or with tags, fused parts or gaps): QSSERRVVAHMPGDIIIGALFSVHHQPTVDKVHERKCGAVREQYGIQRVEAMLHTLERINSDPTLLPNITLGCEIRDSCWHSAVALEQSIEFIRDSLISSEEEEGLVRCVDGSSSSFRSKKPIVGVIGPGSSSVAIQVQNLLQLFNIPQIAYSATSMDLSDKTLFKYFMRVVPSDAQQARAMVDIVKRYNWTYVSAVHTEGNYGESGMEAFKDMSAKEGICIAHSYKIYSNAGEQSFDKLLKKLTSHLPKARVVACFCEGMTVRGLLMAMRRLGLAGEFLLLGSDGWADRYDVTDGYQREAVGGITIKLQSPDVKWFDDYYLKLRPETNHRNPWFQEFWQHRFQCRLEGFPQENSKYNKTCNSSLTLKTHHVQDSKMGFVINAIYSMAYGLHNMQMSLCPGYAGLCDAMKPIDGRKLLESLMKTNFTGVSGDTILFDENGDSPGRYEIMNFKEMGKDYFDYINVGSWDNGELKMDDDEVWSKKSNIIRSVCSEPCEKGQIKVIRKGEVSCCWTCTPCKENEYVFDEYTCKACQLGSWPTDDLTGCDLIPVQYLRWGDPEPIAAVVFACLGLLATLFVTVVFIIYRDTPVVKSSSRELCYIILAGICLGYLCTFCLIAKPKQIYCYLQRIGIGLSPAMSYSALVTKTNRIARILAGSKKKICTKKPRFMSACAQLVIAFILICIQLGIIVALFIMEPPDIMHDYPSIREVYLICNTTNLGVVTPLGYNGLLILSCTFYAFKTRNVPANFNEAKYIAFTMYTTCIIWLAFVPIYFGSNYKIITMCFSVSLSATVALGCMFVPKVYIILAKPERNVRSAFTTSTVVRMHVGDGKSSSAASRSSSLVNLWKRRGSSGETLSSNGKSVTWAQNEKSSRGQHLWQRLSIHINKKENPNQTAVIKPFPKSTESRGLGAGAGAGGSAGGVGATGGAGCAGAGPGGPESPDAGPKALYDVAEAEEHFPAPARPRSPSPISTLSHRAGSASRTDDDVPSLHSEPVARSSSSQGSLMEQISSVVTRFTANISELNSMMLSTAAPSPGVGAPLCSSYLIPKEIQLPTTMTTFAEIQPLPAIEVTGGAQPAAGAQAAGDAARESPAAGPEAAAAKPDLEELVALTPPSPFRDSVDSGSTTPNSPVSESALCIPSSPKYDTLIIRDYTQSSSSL

SMILES | EC50 [nM] | Emax [%]
CC1(C)CCC(=O)N(c2ccc(C#Cc3cccc(F)c3)cn2)C1 [Example 43, 5′-(3-Fluoro-phenylethynyl)-5,5-dimethyl-3,4,5,6-tetrahydro-[1,2′]bipyridinyl-2-one] | 12 | 100
CN1C(=O)N(c2ccc(C#Cc3ccccc3)cn2)CC12CCCC2 [Example 44, 1-Methyl-3-(5-phenylethynyl-pyridin-2-yl)-1,3-diaza-spiro[4.4]nonan-2-one] | 29 | 92
CN1C(=O)N(c2ccc(C#Cc3cccnc3)cn2)CC1(C)C [Example 48, 3,4,4-Trimethyl-1-(5-pyridin-3-ylethynyl-pyridin-2-yl)-imidazolidin-2-one] | 14 | 89
CN1C(=O)N(c2ccc(C#Cc3cncc(F)c3)cn2)CC1(C)C [Example 49, 1-[5-(5-Fluoro-pyridin-3-ylethynyl)-pyridin-2-yl]-3,4,4-trimethyl-imidazolidin-2-one] | 37 | 91
CN1C(=O)N(c2ccc(C#Cc3cnn(C)c3)cn2)CC1(C)C [Example 50, 3,4,4-Trimethyl-1-[5-(1-methyl-1H-pyrazol-4-ylethynyl)-pyridin-2-yl]-imidazolidin-2-one] | 27 | 41
CN1C(=O)N(c2ccc(C#Cc3cncc(Cl)c3)cn2)CC1(C)C [Example 51, 1-[5-(5-Chloro-pyridin-3-ylethynyl)-pyridin-2-yl]-3,4,4-trimethyl-imidazolidin-2-one] | 29 | 45
CN1C(=O)N(c2ccc(C#Cc3ccnnc3)cn2)CC1(C)C [Example 52, 3,4,4-Trimethyl-1-(5-pyridazin-4-ylethynyl-pyridin-2-yl)-imidazolidin-2-one] | 34 | 32
CN1C(=O)N(c2ccc(C#Cc3cccc(F)c3)cn2)CC1(C)C [Example 53, 1-[5-(3-Fluoro-phenylethynyl)-pyridin-2-yl]-3,4,4-trimethyl-imidazolidin-2-one] | 29 | 103
CN1C(=O)N(c2ccc(C#Cc3cccc(Cl)c3)cn2)CC1(C)C [Example 54, 1-[5-(3-Chloro-phenylethynyl)-pyridin-2-yl]-3,4,4-trimethyl-imidazolidin-2-one] | 32 | 47
CN1C(=O)N(c2ccc(C#Cc3cncnc3)cn2)CC1(C)C [Example 55, 3,4,4-Trimethyl-1-(5-pyrimidin-5-ylethynyl-pyridin-2-yl)-imidazolidin-2-one] | 54 | 110
Cc1cccc(C#Cc2ccc(N3CC(C)(C)N(C)C3=O)nc2)c1 [Example 56, 3,4,4-Trimethyl-1-(5-m-tolylethynyl-pyridin-2-yl)-imidazolidin-2-one] | 87 | 56
CN1C(=O)N(c2ccc(C#Cc3ccc(F)cc3)cn2)CC1(C)C [Example 57, 1-[5-(4-Fluoro-phenylethynyl)-pyridin-2-yl]-3,4,4-trimethyl-imidazolidin-2-one] | 35 | 78
O=C1CC2(CCCC2)CN1c1ccc(C#Cc2ccccc2)cn1 [Example 59, 2-(5-Phenylethynyl-pyridin-2-yl)-2-aza-spiro[4.4]nonan-3-one] | 16 | 81
CN1C(=O)N(c2ccc(C#Cc3ccccc3)cn2)CCC1(C)C [Example 67, 3,4,4-Trimethyl-1-(5-phenylethynyl-pyridin-2-yl)-tetrahydro-pyrimidin-2-one] | 15 | 81
CN1C(=O)N(c2ccc(C#Cc3cc(F)ccc3F)cn2)CCC1(C)C [Example 68, 1-[5-(2,5-Difluoro-phenylethynyl)-pyridin-2-yl]-3,4,4-trimethyl-tetrahydro-pyrimidin-2-one] | 41 | 79
CN1C(=O)N(c2ccc(C#Cc3ccc(F)cc3)cn2)CCC1(C)C [Example 69, 1-[5-(4-Fluoro-phenylethynyl)-pyridin-2-yl]-3,4,4-trimethyl-tetrahydro-pyrimidin-2-one] | 49 | 107
CC1(C)CCN(c2ccc(C#Cc3cccnc3)cn2)C(=O)O1 [Example 73, 6,6-Dimethyl-3-(5-pyridin-3-ylethynyl-pyridin-2-yl)-[1,3]oxazinan-2-one] | 59 | 98
CC1(C)CCN(c2ccc(C#Cc3cncc(F)c3)cn2)C(=O)O1 [Example 74, 3-[5-(5-Fluoro-pyridin-3-ylethynyl)-pyridin-2-yl]-6,6-dimethyl-[1,3]oxazinan-2-one] | 59 | 108
CC1(C)CCN(c2ccc(C#Cc3cncc(Cl)c3)cn2)C(=O)O1 [Example 75, 3-[5-(5-Chloro-pyridin-3-ylethynyl)-pyridin-2-yl]-6,6-dimethyl-[1,3]oxazinan-2-one] | 27 | 87

SMILES | EC50 [nM] | Emax [%]
CC1(C)CCN(c2ccc(C#Cc3cccc(Cl)c3)cn2)C(=O)O1 [Example 77, 3-[5-(3-Chloro-phenylethynyl)-pyridin-2-yl]-6,6-dimethyl-[1,3]oxazinan-2-one] | 12 | 72
Cc1cccc(C#Cc2ccc(N3CCC(C)(C)OC3=O)nc2)c1 [Example 78, 6,6-Dimethyl-3-(5-m-tolylethynyl-pyridin-2-yl)-[1,3]oxazinan-2-one] | 24 | 72
CC1(C)CCN(c2ccc(C#Cc3ccc(F)c(F)c3)cn2)C(=O)O1 [Example 80, 3-[5-(3,4-Difluoro-phenylethynyl)-pyridin-2-yl]-6,6-dimethyl-[1,3]oxazinan-2-one] | 37 | 69
O=C1CC2(COC2)CN1c1ccc(C#Cc2ccccc2)cn1 [Example 82, 6-(5-Phenylethynyl-pyridin-2-yl)-2-oxa-6-aza-spiro[3.4]octan-7-one] | 57 | 72
CN1C(=O)N(c2ccc(C#Cc3ccccc3)cn2)C2CCCCC21 (stereo not drawn) [Example 84, (3 aSR,7aRS)-(3aRS,7RS)-1-Methyl-3-(5-phenylethynyl-pyridin-2-yl)-octahydro-benzoimidazol-2-one] | 11 | 64
CN1C(=O)N(c2ccc(C#Cc3cccnc3)cn2)C2CCCCC21 (stereo not drawn) [Example 85, (3aSR,7aRS)-(3aRS,7RS)-1-Methyl-3-(5-pyridin-3-ylethynyl-pyridin-2-yl)-octahydro-benzoimidazol-2-one] | 27 | 49
CN1C(=O)N(c2ccc(C#Cc3cncc(F)c3)cn2)C2CCCCC21 (stereo not drawn) [Example 86, (3aSR,7aRS)-(3aRS,7RS)-1-[5-(5-Fluoro-pyridin-3-ylethynyl)-pyridin-2-yl]-3-methyl-octahydro-benzoimidazol-2-one] | 32 | 52
CC1(C)CCN(c2ccc(C#Cc3ccccc3)cn2)C(=O)C1 [Example 87, 4,4-Dimethyl-5′-phenylethynyl-3,4,5,6-tetrahydro-[1,2′]bipyridinyl-2-one] | 12 | 89
CC1(C)CCN(c2ccc(C#Cc3cccc(F)c3)cn2)C(=O)C1 [Example 88, 5′-(3-Fluoro-phenylethynyl)-4,4-dimethyl-3,4,5,6-tetrahydro-[1,2′]bipyridinyl-2-one] | 19 | 110
CC1(C)CCN(c2ccc(C#Cc3cccc(Cl)c3)cn2)C(=O)C1 [Example 89, 5′-(3-Chloro-phenylethynyl)-4,4-dimethyl-3,4,5,6-tetrahydro-[1,2′]bipyridinyl-2-one] | 25 | 78
CC1(C)CCN(c2ccc(C#Cc3cncc(Cl)c3)cn2)C(=O)C1 [Example 90, 5′-(5-Chloro-pyridin-3-ylethynyl)-4,4-dimethyl-3,4,5,6-tetrahydro-[1,2′]bipyridinyl-2-one] | 66 | 90
CC1(C)CCN(c2ccc(C#Cc3ccc(F)cc3)cn2)C(=O)C1 [Example 91, 5′-(4-Fluoro-phenylethynyl)-4,4-dimethyl-3,4,5,6-tetrahydro-[1,2′]bipyridinyl-2-one] | 67 | 89
CC1(C)CCN(c2ccc(C#Cc3cc(F)ccc3F)cn2)C(=O)C1 [Example 92, 5′-(2,5-Difluoro-phenylethynyl)-4,4-dimethyl-3,4,5,6-tetrahydro-[1,2′]bipyridinyl-2-one] | 32 | 84
CC1(C)CCCN(c2ccc(C#Cc3ccccc3)cn2)C(=O)O1 [Example 93, 7,7-Dimethyl-3-(5-phenylethynyl-pyridin-2-yl)-[1,3]oxazepan-2-one] | 36 | 104
O=C1OC2COCCC2N1c1ccc(C#Cc2ccccc2)cn1 (stereo not drawn) [Example 94, (3aSR,7aRS)-(3aRS,7RS)-1-(5-Phenylethynyl-pyridin-2-yl)-hexahydro-pyrano[4,3-d]oxazol-2-one] | 60 | 84
CN1C(=O)N(c2ccc(C#Cc3ccccc3)cn2)CC12CC2 [Example 96, 4-Methyl-6-(5-phenylethynyl-pyridin-2-yl)-4,6-diaza-spiro[2.4]heptan-5-one] | 35 | 98
CC1(C)CN(c2ccc(C#Cc3ccccc3)cn2)C1=O [Example 97, 3,3-Dimethyl-1-(5-phenylethynyl-pyridin-2-yl)-azetidin-2-one] | 36 | 71
CCN1C(=O)N(c2ccc(C#Cc3ccccc3)cn2)C2CCCCC21 (stereo not drawn) [Example 99, (3aSR,7aRS)-(3aRS,7RS)-1-Ethyl-3-(5-phenylethynyl-pyridin-2-yl)-octahydro-benzoimidazol-2-one] | 18 | 90
CCN1C(=O)N(c2ccc(C#Cc3cccnc3)cn2)C2CCCCC21 (stereo not drawn) [Example 100, (3aSR,7aRS)-(3aRS,7RS)-1-Ethyl-3-(5-pyridin-3-ylethynyl-pyridin-2-yl)-octahydro-benzoimidazol-2-one] | – | 64
